{"source": "patent US20250268826A1", "about": "“IONIZABLE LIPIDOID COMPOSITIONS AND THERAPEUTIC USES THEREOF” (Flagship Pioneering Innovations VII, LLC, priority 2023, published 2025)", "assay_type_in_all_cases": "physicochemical", "key": {"[1]": {"experiment": "LNP size and polydispersity index (PDI) by dynamic light scattering (DLS)"}, "[2]": {"experiment": "Encapsulation efficiency (EE %) by fluorescence based Ribogreen assay"}, "[3]": {"experiment": "LNP Zeta potential measured using a Zetasizer (Malvern)", "details": "for Zeta potential: hEPO mRNA, N:P 6; for Zeta potential (mV): Table 11, LNP with hEPO mRNA, Lipid:DSPC:Cholesterol:DMG-PEG2k 50:10:38.5:1.5 mol % (ALC-0315: 46.3:9.4:42.7:1.6), N:P ratio 6, HEPES/sodium chloride/sucrose buffer, stored at −80C"}, "[4]": {"details": "Table 1, LNP lipid:DSPC:Cholesterol:DMG-PEG2k 50:10:38.5:1.5 mol %, hEPO mRNA, N:P 6"}, "[5]": {"details": "Table 1, LNP lipid:DSPC:Cholesterol:DMG-PEG2k 50:10:38.5:1.5 mol %"}, "[6]": {"details": "Table 5, LNP 50:10:38.5:1.5 mol %, hEPO mRNA, N:P 6"}, "[7]": {"details": "Table 5, LNP Lipid:DSPC:Cholesterol:DMG-PEG2k 50:10:38.5:1.5 mol %, hEPO mRNA, N:P 6"}, "[8]": {"details": "Table 5, LNP 50:10:38.5:1.5 mol %"}, "[9]": {"details": "Table 9, LNP 50:10:38.5:1.5 mol %, hEPO mRNA, N:P 6"}, "[10]": {"details": "Table 9, LNP Lipid:DSPC:Cholesterol:DMG-PEG2k 50:10:38.5:1.5 mol %, hEPO mRNA, N:P 6"}, "[11]": {"details": "Table 9, LNP 50:10:38.5:1.5 mol %"}, "[12]": {"details": "Table 8, LNP 50:10:38.5:1.5 mol %, hEPO mRNA, N:P 6"}, "[13]": {"details": "Table 8, LNP Lipid:DSPC:Cholesterol:DMG-PEG2k 50:10:38.5:1.5 mol %, hEPO mRNA, N:P 6"}, "[14]": {"details": "Table 11, LNP with hEPO mRNA, Lipid:DSPC:Cholesterol:DMG-PEG2k 50:10:38.5:1.5 mol % (ALC-0315: 46.3:9.4:42.7:1.6), N:P ratio 6, HEPES/sodium chloride/sucrose buffer, stored at −80C"}, "[15]": {"details": "Table 3, LNP 50:10:38.5:1.5 mol %, hEPO mRNA, N:P 6"}, "[16]": {"details": "Table 3, LNP lipid:DSPC:Cholesterol:DMG-PEG2k 50:10:38.5:1.5 mol %, hEPO mRNA, N:P 6"}, "[17]": {"details": "Table 5, LNP 60:0:38.5:1.5 mol %, hEPO mRNA, N:P 6"}}, "data": [{"smiles": "CCCCCCCCCCCC(=O)OCCN(CCOC(=O)CCCCCCCCCCC)C(=O)C(N)CCCCN", "note": "(stereo not drawn) [Compound 121]", "values": [{"measurement": "Size", "setting": "[1]; [4]", "value": 105.4, "unit": "nm"}, {"measurement": "Encapsulation Efficiency %", "setting": "[2]; [4]", "value": 93.1, "unit": "%"}, {"measurement": "Zeta potential", "setting": "[3]; [5]", "value": 8.346, "unit": "mV"}]}, {"smiles": "CCCCCC(CCCCC)C(=O)OCCN(CCOC(=O)C(CCCCC)CCCCC)C(=O)C(C)N", "note": "(stereo not drawn) [Compound 608]", "values": [{"measurement": "PDI", "setting": "[1]; [6]", "value": 0.13}, {"measurement": "Size", "setting": "[1]; [7]", "value": 77.1, "unit": "nm"}, {"measurement": "Encapsulation Efficiency %", "setting": "[2]; [6]", "value": 97.7, "unit": "%"}, {"measurement": "Zeta potential", "setting": "[3]; [8]", "value": "−4.462", "unit": "mV"}]}, {"smiles": "CCCCCCCCC(CCCCCC)C(=O)OCCN(CCOC(=O)C(CCCCCC)CCCCCCCC)C(=O)CNCCC.Cl", "note": "(stereo not drawn) [Compound 968]", "values": [{"measurement": "PDI", "setting": "[1]; [9]", "value": 0.368}, {"measurement": "Size", "setting": "[1]; [10]", "value": 76.7, "unit": "nm"}, {"measurement": "Encapsulation Efficiency %", "setting": "[2]; [9]", "value": 98.2, "unit": "%"}, {"measurement": "Zeta potential", "setting": "[3]; [11]", "value": "−13.15", "unit": "mV"}]}, {"smiles": "CCCCCCCCC(CC)C(=O)OCCN(CCOC(=O)C(CC)CCCCCCCC)C(=O)C(C)N", "note": "(stereo not drawn) [Compound 610]", "values": [{"measurement": "PDI", "setting": "[1]; [6]", "value": 0.202}, {"measurement": "Size", "setting": "[1]; [7]", "value": 77.3, "unit": "nm"}, {"measurement": "Encapsulation Efficiency %", "setting": "[2]; [6]", "value": 99.7, "unit": "%"}, {"measurement": "Zeta potential", "setting": "[3]; [8]", "value": "−1.535", "unit": "mV"}]}, {"smiles": "CCCCCCCCC(CCCCCC)C(=O)OCCN(CCOC(=O)C(CCCCCC)CCCCCCCC)C(=O)CN1CCOCC1.Cl", "note": "(stereo not drawn) [Compound 960e]", "values": [{"measurement": "PDI", "setting": "[1]; [9]", "value": 0.384}, {"measurement": "Size", "setting": "[1]; [10]", "value": 73.3, "unit": "nm"}, {"measurement": "Encapsulation Efficiency %", "setting": "[2]; [9]", "value": 99.4, "unit": "%"}, {"measurement": "Zeta potential", "setting": "[3]; [11]", "value": "−45.58", "unit": "mV"}]}, {"smiles": "CCCCCCCCCC(CCCCCCCC)C(=O)OCCN(CCOC(=O)C(CCCCCCCC)CCCCCCCCC)C(=O)CCCN(C)C.Cl", "note": "(stereo not drawn) [Compound 933]", "values": [{"measurement": "PDI", "setting": "[1]; [12]", "value": 0.301}, {"measurement": "Size", "setting": "[1]; [13]", "value": 110.9, "unit": "nm"}, {"measurement": "Encapsulation Efficiency %", "setting": "[2]; [12]", "value": 99.2, "unit": "%"}, {"measurement": "Zeta potential", "setting": "[3]; Table 8, LNP 50:10:38.5:1.5 mol %", "value": "−12.2", "unit": "mV"}]}, {"smiles": "CCCCCCCCC(CCCCCC)C(=O)OCCN(CCOC(=O)C(CCCCCC)CCCCCCCC)C(=O)C(C)CCN(C)CCC.Cl", "note": "(stereo not drawn) [Compound 987i]", "values": [{"measurement": "PDI", "setting": "[1]; [14]", "value": 0.059}, {"measurement": "Size (nm)", "setting": "[1]; [14]", "value": 71.7, "unit": "nm"}, {"measurement": "Encapsulation Efficiency %", "setting": "[2]; [14]", "value": 94.9, "unit": "%"}, {"measurement": "Zeta potential (mV)", "setting": "[3]", "value": "−4.1", "unit": "mV"}]}, {"smiles": "CCCCCCCCC(CCCCCC)C(=O)OCCN(CCOC(=O)C(CCCCCC)CCCCCCCC)C(=O)C(C)CCNCC.Cl", "note": "(stereo not drawn) [Compound 987e]", "values": [{"measurement": "PDI", "setting": "[1]; [14]", "value": 0.110}, {"measurement": "Size (nm)", "setting": "[1]; [14]", "value": 70.5, "unit": "nm"}, {"measurement": "Encapsulation Efficiency %", "setting": "[2]; [14]", "value": 99.4, "unit": "%"}, {"measurement": "Zeta potential (mV)", "setting": "[3]", "value": 0.8, "unit": "mV"}]}, {"smiles": "CCCCCCCCC(CCCCCC)C(=O)OCCN(CCOC(=O)C(CCCCCC)CCCCCCCC)C(=O)CN", "note": "(stereo not drawn) [Compound 105]", "values": [{"measurement": "PDI", "setting": "[1]; [4]", "value": 0.217}, {"measurement": "Size", "setting": "[1]; [4]", "value": 72.6, "unit": "nm"}, {"measurement": "PDI", "setting": "[1]; [15]", "value": 0.256}, {"measurement": "Size", "setting": "[1]; [16]", "value": 162.2, "unit": "nm"}, {"measurement": "PDI", "setting": "[1]; [6]", "value": 0.104}, {"measurement": "PDI", "setting": "[1]; [17]", "value": 0.198}, {"measurement": "Size", "setting": "[1]; [17]", "value": 146.3, "unit": "nm"}, {"measurement": "Size", "setting": "[1]; [7]", "value": 166.9, "unit": "nm"}, {"measurement": "Encapsulation Efficiency %", "setting": "[2]; [4]", "value": 91.3, "unit": "%"}, {"measurement": "Encapsulation Efficiency %", "setting": "[2]; [15]", "value": 99.9, "unit": "%"}, {"measurement": "Encapsulation Efficiency %", "setting": "[2]; [6]", "value": 99.6, "unit": "%"}, {"measurement": "Encapsulation Efficiency %", "setting": "[2]; [17]", "value": 99.3, "unit": "%"}, {"measurement": "Zeta potential", "setting": "[3]; [5]", "value": "−4.852", "unit": "mV"}, {"measurement": "Zeta potential", "setting": "[3]; [8]", "value": "−5.091", "unit": "mV"}, {"measurement": "Zeta potential", "setting": "[3]; Table 5, LNP 60:0:38.5:1.5 mol %", "value": "−8.315", "unit": "mV"}]}, {"smiles": "CCCCCCCCC(CCCCCC)C(=O)OCCN(CCOC(=O)C(CCCCCC)CCCCCCCC)C(=O)C(C)CCN1CCOCC1.Cl", "note": "(stereo not drawn) [Compound 987n]", "values": [{"measurement": "PDI", "setting": "[1]; [14]", "value": 0.107}, {"measurement": "Size (nm)", "setting": "[1]; [14]", "value": 65.7, "unit": "nm"}, {"measurement": "Encapsulation Efficiency %", "setting": "[2]; [14]", "value": 77.8, "unit": "%"}, {"measurement": "Zeta potential (mV)", "setting": "[3]", "value": "−3.8", "unit": "mV"}]}, {"smiles": "CCCCCCCCC(CCCCCC)C(=O)OCCN(CCOC(=O)C(CCCCCC)CCCCCCCC)C(=O)CN(CC)CC.Cl", "note": "(stereo not drawn) [Compound 967]", "values": [{"measurement": "PDI", "setting": "[1]; [9]", "value": 0.101}, {"measurement": "Size", "setting": "[1]; [10]", "value": 82.1, "unit": "nm"}, {"measurement": "Encapsulation Efficiency %", "setting": "[2]; [9]", "value": 97.9, "unit": "%"}, {"measurement": "Zeta potential", "setting": "[3]; [11]", "value": "−21.99", "unit": "mV"}]}, {"smiles": "CCCCCCCCC(CCCCCC)C(=O)OCCN(CCOC(=O)C(CCCCCC)CCCCCCCC)C(=O)C(C)CCN(CC)CC.Cl", "note": "(stereo not drawn) [Compound 987g]", "values": [{"measurement": "PDI", "setting": "[1]; [14]", "value": 0.097}, {"measurement": "Size (nm)", "setting": "[1]; [14]", "value": 70.5, "unit": "nm"}, {"measurement": "Encapsulation Efficiency %", "setting": "[2]; [14]", "value": 95.4, "unit": "%"}, {"measurement": "Zeta potential (mV)", "setting": "[3]", "value": "−3.5", "unit": "mV"}]}, {"smiles": "CCCCCCCC/C=C\\CCCCCCCC(=O)OCCN(CCOC(=O)CCCCCCC/C=C\\CCCCCCCC)C(=O)[C@@H](N)Cc1ccccc1.Cl", "note": "[Compound 202]", "values": [{"measurement": "PDI", "setting": "[1]; [15]", "value": 0.033}, {"measurement": "Size", "setting": "[1]; [16]", "value": 60.7, "unit": "nm"}, {"measurement": "Encapsulation Efficiency %", "setting": "[2]; [15]", "value": 99.7, "unit": "%"}]}, {"smiles": "CCCCCCCC/C=C\\CCCCCCCC(=O)OCCN(CCOC(=O)CCCCCCC/C=C\\CCCCCCCC)C(=O)C(N)Cc1c[nH]cn1", "note": "(stereo not drawn) [Compound 125]", "values": [{"measurement": "PDI", "setting": "[1]; [4]", "value": 0.46}, {"measurement": "Size", "setting": "[1]; [4]", "value": 109.4, "unit": "nm"}, {"measurement": "Encapsulation Efficiency %", "setting": "[2]; [4]", "value": 99.4, "unit": "%"}]}, {"smiles": "CCCCCCCCC(CCCCCC)C(=O)OCCN(CCOC(=O)C(CCCCCC)CCCCCCCC)C(=O)C(N)Cc1c[nH]cn1", "note": "(stereo not drawn) [Compound 129]", "values": [{"measurement": "Size", "setting": "[1]; [4]", "value": 93.8, "unit": "nm"}, {"measurement": "Encapsulation Efficiency %", "setting": "[2]; [4]", "value": 99.7, "unit": "%"}]}, {"smiles": "CCCCCCCC/C=C\\CCCCCCCC(=O)OCCN(CCOC(=O)CCCCCCC/C=C\\CCCCCCCC)C(=O)[C@H](C)N.Cl", "note": "[Compound 201]", "values": [{"measurement": "PDI", "setting": "[1]; [15]", "value": 0.032}, {"measurement": "Size", "setting": "[1]; [16]", "value": 63.1, "unit": "nm"}, {"measurement": "Encapsulation Efficiency %", "setting": "[2]; [15]", "value": 99.9, "unit": "%"}]}, {"smiles": "CCCCCCCCC(CCCCCC)C(=O)OCCN(CCOC(=O)C(CCCCCC)CCCCCCCC)C(=O)CC(C)NCCC.Cl", "note": "(stereo not drawn) [Compound 948]", "values": [{"measurement": "PDI", "setting": "[1]; [12]", "value": 0.188}, {"measurement": "Size", "setting": "[1]; [13]", "value": 74.1, "unit": "nm"}, {"measurement": "Encapsulation Efficiency %", "setting": "[2]; [12]", "value": 99.7, "unit": "%"}]}]}
